In brackets after ≈: the same amount, converted by molar mass. Structures can show the parent of a compound that is named as a salt. Where two headings read alike, the source gives them in different places.
Legend:
Experiment in all cases: MIC, microdilution method
Type in all cases: cell-based
[1] = system: Escherichia coli ATCC 25922 = CCM 3954
Method: (§1) Disposable microtiter plates are used for testing. Samples are dissolved in infusion medium from brain and heart (BHI, HiMedia Laboraties Pvt. Ltd., Czech Republic) and Mueller-Hinton broth (HiMedia Laboraties, see above) to a final concentration ranging from 200 μg/ml to 1.5625 μg/ml. Plates are inoculated with a standard amount of test bacteria—the density of the inoculum in the well corresponds to 10^5-6 CFU/ml (colony forming units/ml, i.e. the number of viable bacterial cells/ml). MIC values are read after 24/48 hours of incubation at 37° C. as the minimum inhibitory concentration of the test substance at which bacterial growth is inhibited. The minimum bactericidal concentration (MBC) is characterized as the minimum concentration of the sample required to achieve irreversible inhibition, i.e. to kill the bacteria after a defined incubation period. MBC is determined by the inoculation method. Using an applicator, 10 μl from the well of a microtiter plate with a defined concentration of the test substance is taken to inoculate the surface of blood agar (Trios, Czech Republic). MBC is determined as the lowest concentration that inhibits the visible growth of the bacterium used on agar.

[2] = system: Staphylococcus aureus ATCC 29213 = CCM 4223
Method: as §1

Enterobacter kobei 3683 = system: Enterobacter kobei 3683
Method: as §1

[3] = system: Enterococcus faecalis ATCC 29212 = CCM 4224
Method: as §1

[4] = system: Enterococcus faecium 419/ANA
Method: as §1

Escherichia coli CE5556 = system: Escherichia coli CE5556
Method: as §1

[5] = system: Pseudomonas aeruginosa ATCC 27853 = CCM 3955
Method: as §1

Pseudomonas aeruginosa R = system: Pseudomonas aeruginosa R
Method: as §1

[6] = system: Staphylococcus aureus 4591
Method: as §1

[7] = system: Staphylococcus epidermidis CCM 7221
Method: as §1

[8] = system: Candida albicans ATCC 90028 = CCM 8161
[9] = Enterobacter kobei, 3683, 24/48 hours at 37° C., read-out: MIC
[10] = Enterococcus faecalis, 24/48 hours at 37° C., read-out: MIC
[11] = Enterococcus faecium, 419/ANA, 24/48 hours at 37° C., read-out: MIC
[12] = Escherichia coli, 24/48 hours at 37° C., read-out: MIC
[13] = Escherichia coli, CE5556, 24/48 hours at 37° C., read-out: MIC
[14] = Pseudomonas aeruginosa, 24/48 hours at 37° C., read-out: MIC
[15] = Staphylococcus aureus, 4591, 24/48 hours at 37° C., read-out: MIC
[16] = Staphylococcus aureus, 24/48 hours at 37° C., read-out: MIC
[17] = Staphylococcus epidermidis, CCM7221, 24/48 hours at 37° C., read-out: MIC
[18] = Candida albicans, 24/48 hours at 37° C., read-out: MIC
[19] = Escherichia coli, 24/48 hours at 37° C.
[20] = Staphylococcus epidermidis, CCM7221

Row | Compound | MIC (Enterobacter kobei 3683; Enterobacter kobei, 3683) | MIC ([3]; Enterococcus faecalis) | MIC ([4]; Enterococcus faecium, 419/ANA) | MIC [1, 19] | MIC (Escherichia coli CE5556; Escherichia coli, CE5556) | MIC ([5]; Pseudomonas aeruginosa) | MIC (Pseudomonas aeruginosa R; Pseudomonas aeruginosa) | MIC ([6]; Staphylococcus aureus, 4591) | MIC ([2]; Staphylococcus aureus) | MIC [7, 20] | MIC ([8]; Candida albicans) | also measured
1 | CCCCCCCCCCCCCCOP(=O)(CCN(CCCNC(=N)N)CCCNC(=N)N)OC[C@H]1O[C@@H](n2ccc(=O)[nH]c2=O)C(O)C1O (some centres unmarked) [DR7030, reference compound] |  |  |  |  |  |  |  |  |  |  |  | MIC ([1]; Escherichia coli, 0% BSA, read-out: MIC): 2 µg/mL (≈ 2.68 µM); MIC ([1]; Escherichia coli, 4% BSA, read-out: MIC): > 200 µg/mL; MIC ([2]; Staphylococcus aureus, 0% BSA, read-out: MIC): 2 µg/mL (≈ 2.68 µM); MIC ([2]; Staphylococcus aureus, 4% BSA, read-out: MIC): > 200 µg/mL
2 | C=CP(=O)(OCCCCCCCCCCCCOP(=O)(C=C)OCC(C)C)OCC(C)C (centres unmarked) [Example 34, Diisobutyl dodecane-1,12-diyl bis(vinylphosphonate)] |  |  |  |  |  |  |  |  |  |  |  | MIC (Enterobacter kobei 3683; [9]): > 128 µg/mL; MIC [3, 10]: 128 µg/mL (≈ 259 µM); MIC [4, 11]: > 128 µg/mL; MIC [1, 12]: 32 µg/mL (≈ 64.7 µM); MIC (Escherichia coli CE5556; [13]): 128 µg/mL (≈ 259 µM); MIC [5, 14]: > 128 µg/mL; MIC (Pseudomonas aeruginosa R; [14]): > 128 µg/mL; MIC [6, 15]: 16 µg/mL (≈ 32.4 µM); MIC [2, 16]: 8 µg/mL (≈ 16.2 µM); MIC [7, 17]: 4 µg/mL (≈ 8.09 µM); MIC [8, 18]: 128 µg/mL (≈ 259 µM)
3 | CCCCCOP(=O)(CCN(CCCN)CCCN)OCCCCCCCCOP(=O)(CCN(CCCN)CCCN)OCCCCC.Cl.Cl.Cl.Cl.Cl.Cl (centres unmarked) [Example 37, Octane-1,8-diyl dipentyl bis((2-(bis(3-aminopropyl)amino)-ethyl)phosphonate) hexahydrochloride] | > 128 µg/mL | 16 µg/mL | > 128 µg/mL | 2 µg/mL | 8 µg/mL | 16 µg/mL | 64 µg/mL | 2 µg/mL | 1 µg/mL | 0.5 µg/mL | 32 µg/mL | MIC ([1]; Escherichia coli, 0% BSA): 2 µg/mL; MIC ([1]; Escherichia coli, 4% BSA): 4 µg/mL; MIC ([2]; 4% BSA): 1 µg/mL; MIC ([2]; 24/48 hours at 37° C.): 1 µg/mL
4 | C=CP(=O)(OCCCCCCCCCCOP(=O)(C=C)OCC(C)C)OCC(C)C (centres unmarked) [Example 39, Decane-1,10-diyl diisobutyl bis(vinylphosphonate)] |  |  |  |  |  |  |  |  |  |  |  | MIC (Enterobacter kobei 3683; [9]): > 128 µg/mL; MIC [3, 10]: 64 µg/mL (≈ 137 µM); MIC [4, 11]: 128 µg/mL (≈ 274 µM); MIC [1, 12]: 128 µg/mL (≈ 274 µM); MIC (Escherichia coli CE5556; [13]): 128 µg/mL (≈ 274 µM); MIC [5, 14]: 128 µg/mL (≈ 274 µM); MIC (Pseudomonas aeruginosa R; [14]): 64 µg/mL (≈ 137 µM); MIC [6, 15]: 16 µg/mL (≈ 34.3 µM); MIC [2, 16]: 32 µg/mL (≈ 68.6 µM); MIC [7, 17]: 8 µg/mL (≈ 17.1 µM); MIC [8, 18]: > 128 µg/mL
5 | CCCCOP(=O)(CCN(CCCN)CCCN)OCCCCCCCCCCOP(=O)(CCN(CCCN)CCCN)OCCCC.Cl.Cl.Cl.Cl.Cl.Cl (centres unmarked) [Example 41, Dibutyl decane-1,10-diyl bis((2-(bis(3-aminopropyl)amino)ethyl)phosphonate) hexahydrochloride] | > 128 µg/mL | 32 µg/mL | 128 µg/mL | 64 µg/mL | 128 µg/mL | 16 µg/mL | 8 µg/mL | 2 µg/mL | 2 µg/mL | 1 µg/mL | 64 µg/mL | 
6 | CCCCCOP(=O)(CCN(CCCN)CCCN)OCCCCCCCCCCOP(=O)(CCN(CCCN)CCCN)OCCCCC.Cl.Cl.Cl.Cl.Cl.Cl (centres unmarked) [Example 42, Decane-1,10-diyl dipentyl bis((2-(bis(3-aminopropyl)amino)-ethyl)phosphonate) hexahydrochloride] | 64 µg/mL | 4 µg/mL | 32 µg/mL | 2 µg/mL | 8 µg/mL | 4 µg/mL | 8 µg/mL | 1 µg/mL | 0.5 µg/mL | 0.5 µg/mL | 16 µg/mL | 
7 | CCCCCCOP(=O)(CCN(CCCN)CCCN)OCCCCCCCCCCOP(=O)(CCN(CCCN)CCCN)OCCCCCC.Cl.Cl.Cl.Cl (centres unmarked) [Example 43, Decane-1,10-diyl dihexyl bis((2-(bis(3-aminopropyl)amino)-ethyl)phosphonate) tetrahydrochloride] | 1 µg/mL | 0.5 µg/mL | 1 µg/mL | 0.5 µg/mL | 1 µg/mL | 1 µg/mL | 1 µg/mL | 0.5 µg/mL | 0.5 µg/mL | 0.5 µg/mL | 1 µg/mL | 
8 | CCCCCCCCCCOP(=O)(CCN(CCCN)CCCN)OCCCCCCCCCCOP(=O)(CCN(CCCN)CCCN)OCCCCCCCCCC (centres unmarked) [Example 45, Decan-1,10-diyl didecyl bis((2-(bis(3-aminopropyl)amino)ethyl)-phosphonate) tetrahydrochloride] | > 128 µg/mL | 32 µg/mL | 128 µg/mL |  | > 128 µg/mL | 32 µg/mL | 16 µg/mL | 4 µg/mL | 4 µg/mL | 1 µg/mL | 64 µg/mL | MIC ([1]; Escherichia coli): > 128 µg/mL
9 | CCCCOP(=O)(CCN(CCCN)CCCN)OCCCCCCCCCCCCCCOP(=O)(CCN(CCCN)CCCN)OCCCC.Cl.Cl.Cl.Cl.Cl.Cl (centres unmarked) [Example 52, Dibutyl tetradecane-1,14-diyl bis((2-(bis(3-aminopropyl)amino)ethyl)phosphonate) hexahydrochloride] | 8 µg/mL | 1 µg/mL | 2 µg/mL | 2 µg/mL | 2 µg/mL | 4 µg/mL | 2 µg/mL | 1 µg/mL | 1 µg/mL | 0.5 µg/mL | 4 µg/mL | 
10 | CCCCCOP(=O)(CCN(CCCN)CCCN)OCCCCCCCCCCCCCCOP(=O)(CCN(CCCN)CCCN)OCCCCC.Cl.Cl.Cl.Cl.Cl.Cl (centres unmarked) [Example 53, Tetradecane-1,14-diyl dipentyl bis((2-(bis(3-aminopropyl)amino)ethyl)-phosphonate) hexahydrochloride] | 2 µg/mL | 1 µg/mL | 2 µg/mL | 1 µg/mL | 1 µg/mL | 2 µg/mL | 4 µg/mL | 1 µg/mL | 0.5 µg/mL | 0.5 µg/mL | 2 µg/mL | 
11 | CCCCOP(=O)(CCN(CCN)CCN)OCCCCCCCCCCOP(=O)(CCN(CCN)CCN)OCCCC.Cl.Cl.Cl.Cl.Cl.Cl (centres unmarked) [Example 56, Dibutyl decane-1,10-diyl bis((2-(bis(2-aminoethyl)amino)ethyl)phosphonate) hexahydrochloride] | 16 µg/mL | 2 µg/mL | 4 µg/mL | 4 µg/mL | 4 µg/mL | 4 µg/mL | 8 µg/mL | 4 µg/mL | 2 µg/mL | 4 µg/mL | 4 µg/mL | 
12 | Hexan-1,8-diyl dihexyl bis((2-(bis(3-aminopropyl)amino)ethyl)phosphonate) hexahydrochloride [Example 35] |  |  |  |  |  |  |  |  |  |  |  | MIC (Enterobacter kobei 3683; 24/48 hours at 37° C.): 2 µg/mL; MIC ([3]; 24/48 hours at 37° C.): 1 µg/mL; MIC ([4]; 24/48 hours at 37° C.): 8 µg/mL; MIC ([1]; 24/48 hours at 37° C.): 0.5 µg/mL; MIC (Escherichia coli CE5556; 24/48 hours at 37° C.): 1 µg/mL; MIC ([5]; 24/48 hours at 37° C.): 2 µg/mL; MIC (Pseudomonas aeruginosa R; 24/48 hours at 37° C.): 2 µg/mL; MIC ([6]; 24/48 hours at 37° C.): 1 µg/mL; MIC ([2]; 24/48 hours at 37° C.): 0.5 µg/mL; MIC ([7]; 24/48 hours at 37° C.): 0.5 µg/mL; MIC ([8]; 24/48 hours at 37° C.): 16 µg/mL
13 | Hexan-1,8-diyl dioctyl bis((2-(bis(3-aminopropyl)amino)ethyl)phosphonate) hexahydrochloride [Example 36] |  |  |  |  |  |  |  |  |  |  |  | MIC (Enterobacter kobei 3683; 24/48 hours at 37° C.): >128 µg/mL; MIC ([3]; 24/48 hours at 37° C.): >128 µg/mL; MIC ([4]; 24/48 hours at 37° C.): >128 µg/mL; MIC ([1]; 24/48 hours at 37° C.): 128 µg/mL; MIC (Escherichia coli CE5556; 24/48 hours at 37° C.): >128 µg/mL; MIC ([5]; 24/48 hours at 37° C.): >128 µg/mL; MIC (Pseudomonas aeruginosa R; 24/48 hours at 37° C.): 128 µg/mL; MIC ([6]; 24/48 hours at 37° C.): 8 µg/mL; MIC ([2]; 24/48 hours at 37° C.): 16 µg/mL; MIC ([7]; 24/48 hours at 37° C.): 4 µg/mL; MIC ([8]; 24/48 hours at 37° C.): 128 µg/mL
